Test results: publication PMC7485652 (Saudi Journal of Medicine & Medical Sciences, 2020)
Where two headings read alike, the source gives them in different places.

Tests used:
[1] = for plasma level of quetiapine / hmax: male rats; for hmax: mean±SD
[2] = cited from earlier work; for decrease of plasma concentration of quetiapine: administration of lamotrigine
CYP3A4 = details: cited from earlier work
[3] = with probenecid, by inhibition of UGT glucuronidation enzymes; cited from earlier work
[4] = quetiapine 50 mg/kg oral after probenecid 50 mg/kg oral
[5] = quetiapine alone, 50 mg/kg single oral dose

## OCCOCCN1CCN(C2=Nc3ccccc3Sc3ccccc32)CC1 [Quetiapine]
[1]; [4]
  plasma level of quetiapine: 323 ± 128 ng/mL
  hmax: 0.63 ± 0.3 h
[1]; [5]
  plasma level of quetiapine: 155 ± 37 ng/mL
  hmax: 5 ± 2 h
[1]; quetiapine plus probenecid vs quetiapine alone, rats
  difference in half-life of quetiapine between groups: no significant difference
[2]; study with 22 patients
  decrease of plasma concentration of quetiapine: 58%
[2]; study with 144 patients
  decrease of plasma concentration of quetiapine: 17%
[2]; co-administered valproic acid, elderly patients
  increase of plasma level of quetiapine: 77%
[2]; coadministered with sodium divalproex, adult patients, nonsignificant
  increase of Cmax of quetiapine: 17%
[2]; coadministered with sodium divalproex, adult patients
  change in AUC τ of quetiapine: no changes
[2]; coadministered with valproic acid, adult patients, ref Santoro et al. 20
  effect of coadministration on quetiapine: nonsignificant results

## CCCC(CCC)C(=O)O [Valproic acid]
CYP3A4
  inhibition of CYP3A4: weak inhibitor

## Cc1cc2c(s1)Nc1ccccc1N=C2N1CCN(C)CC1 [olanzapine]
[3]
  level of olanzapine: increases
